In ChEMBL document CHEMBL3421558, “Structure activity relationship of substituted 1,5-naphthyridine analogs of oxabicyclooctane-linked novel bacterial topoisomerase inhibitors as broad-spectrum antibacterial agents (Part-4)” (Bioorg Med Chem Lett, 2015):
Converted amounts (≈) assume the structure as drawn.

Key:
Escherichia coli = assay: Antimicrobial activity against Escherichia coli ATCC 25922 by micro broth dilution or agar based method; format: functional; details: Escherichia coli, ATCC 25922; read-out: MIC
Staphylococcus aureus [1] = assay: Potency index, ratio of MIC for quinolone-resistant Staphylococcus aureus MS5935 to MIC for quinolone-[…]; format: functional
Pseudomonas aeruginosa = assay: Antimicrobial activity against Pseudomonas aeruginosa PAO1 by micro broth dilution or agar based method; format: functional; details: Pseudomonas aeruginosa, PAO1; read-out: MIC
Streptococcus pneumoniae = assay: Antimicrobial activity against Streptococcus pneumoniae IID553 by micro broth dilution or agar based method; format: functional; details: Streptococcus pneumoniae, IID553; read-out: MIC
Acinetobacter baumannii = assay: Antimicrobial activity against Acinetobacter baumannii IID876 by micro broth dilution or agar based method; format: functional; details: Acinetobacter baumannii, IID876; read-out: MIC
Staphylococcus aureus [2] = assay: Antimicrobial activity against methicillin-resistant Staphylococcus aureus OIT971 by micro broth dilution or agar based method; format: functional
Staphylococcus aureus [3] = assay: Antimicrobial activity against Staphylococcus aureus Smith by micro broth dilution or agar based method; format: functional
Enterococcus faecium = assay: Antimicrobial activity against VanA expressing vancomycin-resistant Enterococcus faecium by micro broth dilution or agar based method; format: functional; details: Enterococcus faecium; read-out: MIC
[4] = target: Voltage-gated inwardly rectifying potassium channel KCNH2 (Homo sapiens, UniProt Q12809); assay: Inhibition of MK499 binding to human ERG
[5] = Staphylococcus aureus, Smith, read-out: MIC

Voltage-gated inwardly rectifying potassium channel KCNH2, sequence (Q12809 whole entry): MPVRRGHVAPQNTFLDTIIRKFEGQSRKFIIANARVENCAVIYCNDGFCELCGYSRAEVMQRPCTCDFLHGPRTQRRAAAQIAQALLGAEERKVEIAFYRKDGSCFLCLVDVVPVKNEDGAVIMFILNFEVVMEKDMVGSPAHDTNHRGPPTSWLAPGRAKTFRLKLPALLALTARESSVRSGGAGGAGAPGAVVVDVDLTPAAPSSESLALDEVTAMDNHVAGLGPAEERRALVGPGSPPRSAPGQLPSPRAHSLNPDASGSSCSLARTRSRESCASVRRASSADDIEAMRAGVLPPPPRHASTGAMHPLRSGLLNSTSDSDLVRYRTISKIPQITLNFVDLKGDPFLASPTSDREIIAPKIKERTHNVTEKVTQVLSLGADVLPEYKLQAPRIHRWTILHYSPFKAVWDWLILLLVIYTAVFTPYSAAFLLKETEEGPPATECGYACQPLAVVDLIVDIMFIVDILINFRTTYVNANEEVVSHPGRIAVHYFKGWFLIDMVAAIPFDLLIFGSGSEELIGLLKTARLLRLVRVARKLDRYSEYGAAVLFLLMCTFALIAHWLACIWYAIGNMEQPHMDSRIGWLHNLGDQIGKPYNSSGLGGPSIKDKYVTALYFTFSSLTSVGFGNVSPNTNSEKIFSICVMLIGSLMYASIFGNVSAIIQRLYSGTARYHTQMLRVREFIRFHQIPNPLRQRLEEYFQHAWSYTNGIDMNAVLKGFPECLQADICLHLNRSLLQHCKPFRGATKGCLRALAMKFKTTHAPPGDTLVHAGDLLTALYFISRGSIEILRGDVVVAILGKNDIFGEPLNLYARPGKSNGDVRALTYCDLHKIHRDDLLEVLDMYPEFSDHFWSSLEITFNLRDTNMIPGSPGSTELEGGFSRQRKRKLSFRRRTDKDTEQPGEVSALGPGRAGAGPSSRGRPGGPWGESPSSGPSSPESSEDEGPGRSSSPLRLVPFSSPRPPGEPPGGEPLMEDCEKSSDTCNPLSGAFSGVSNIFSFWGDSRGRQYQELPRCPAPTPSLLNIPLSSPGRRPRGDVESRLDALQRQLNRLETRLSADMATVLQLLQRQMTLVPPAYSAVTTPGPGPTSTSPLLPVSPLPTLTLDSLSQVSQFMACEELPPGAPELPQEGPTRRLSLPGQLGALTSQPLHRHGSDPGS

SMILES	MIC (Escherichia coli) [µg/mL]	Ratio (Staphylococcus aureus [1])	MIC (Pseudomonas aeruginosa) [µg/mL]	MIC (Streptococcus pneumoniae) [µg/mL]	MIC (Acinetobacter baumannii) [µg/mL]	MIC (Staphylococcus aureus [2]) [µg/mL]	MIC (Staphylococcus aureus [3]; [5]) [µg/mL]	MIC (Enterococcus faecium) [µg/mL]	IC50 [4] [µM]	MIC (Staphylococcus aureus [3]) [µg/mL]
COc1ccc2nc(N3CCNCC3)c(F)c(CCC34CCC(NCc5ccc6c(n5)NC(=O)CO6)(CC3)CO4)c2n1	8 (≈ 13.8 µM)	<4	8 (≈ 13.8 µM)	8 (≈ 13.8 µM)	8 (≈ 13.8 µM)	8 (≈ 13.8 µM)	8 (≈ 13.8 µM)	8 (≈ 13.8 µM)		
COc1ccc2nc(N3CCN(C)CC3)c(F)c(CCC34CCC(NCc5ccc6c(n5)NC(=O)CO6)(CC3)CO4)c2n1	32 (≈ 54.1 µM)	<4	32 (≈ 54.1 µM)	32 (≈ 54.1 µM)	32 (≈ 54.1 µM)	16 (≈ 27 µM)	32 (≈ 54.1 µM)	32 (≈ 54.1 µM)		
COc1nc2c(CCC34CCC(NCc5ccc6c(n5)NC(=O)CO6)(CC3)CO4)c(F)cnc2cc1C(F)(F)F	8 (≈ 14.2 µM)		8 (≈ 14.2 µM)	8 (≈ 14.2 µM)	8 (≈ 14.2 µM)	8 (≈ 14.2 µM)	8 (≈ 14.2 µM)	8 (≈ 14.2 µM)		
O=C1COc2ccc(CNC34CCC(CCc5c(F)cnc6cc(C(F)(F)F)cnc56)(CC3)OC4)nc2N1	16 (≈ 30.1 µM)		16 (≈ 30.1 µM)	16 (≈ 30.1 µM)	16 (≈ 30.1 µM)	16 (≈ 30.1 µM)	16 (≈ 30.1 µM)	16 (≈ 30.1 µM)		
O=C1COc2ccc(CNC34CCC(CCc5c(F)cnc6cc(Cl)cnc56)(CC3)OC4)nc2N1	32 (≈ 64.3 µM)		32 (≈ 64.3 µM)	32 (≈ 64.3 µM)	32 (≈ 64.3 µM)	8 (≈ 16.1 µM)	8 (≈ 16.1 µM)	32 (≈ 64.3 µM)		
N#Cc1ccc2ncc(C#N)c(CCC34CCC(NCc5ccc6c(n5)NC(=O)CO6)(CC3)CO4)c2n1	8 (≈ 16.1 µM)		16 (≈ 32.3 µM)	1 (≈ 2.02 µM)	2 (≈ 4.04 µM)	0.125 (≈ 0.252 µM)	0.25 (≈ 0.504 µM)	4 (≈ 8.07 µM)		
COc1nc2c(CCC34CCC(NCc5ccc6c(n5)NC(=O)CO6)(CC3)CO4)ccnc2cc1Cl	32 (≈ 62.7 µM)		32 (≈ 62.7 µM)	8 (≈ 15.7 µM)	32 (≈ 62.7 µM)	0.25 (≈ 0.49 µM)	0.5 (≈ 0.98 µM)	16 (≈ 31.4 µM)		
COc1cc2nccc(CCC34CCC(NCc5ccc6c(n5)NC(=O)CO6)(CC3)CO4)c2nc1OC	8 (≈ 15.8 µM)		8 (≈ 15.8 µM)	8 (≈ 15.8 µM)	8 (≈ 15.8 µM)	1 (≈ 1.98 µM)	2 (≈ 3.96 µM)	8 (≈ 15.8 µM)		
COc1nc2c(CCC34CCC(NCc5ccc6c(n5)NC(=O)CO6)(CC3)CO4)ccnc2cc1F	4 (≈ 8.1 µM)		16 (≈ 32.4 µM)	2 (≈ 4.05 µM)	2 (≈ 4.05 µM)	0.063 (≈ 0.128 µM)	0.125 (≈ 0.253 µM)	4 (≈ 8.1 µM)		
COc1nc2c(CCC34CCC(NCc5ccc6c(n5)NC(=O)CO6)(CC3)CO4)ccnc2cc1C#N	64 (≈ 128 µM)		64 (≈ 128 µM)	64 (≈ 128 µM)	64 (≈ 128 µM)	2 (≈ 4 µM)	16 (≈ 32 µM)	64 (≈ 128 µM)		
COc1cc(C)c2nccc(CCC34CCC(NCc5ccc6c(n5)NC(=O)CO6)(CC3)CO4)c2n1	8 (≈ 16.3 µM)		32 (≈ 65.4 µM)	1 (≈ 2.04 µM)	8 (≈ 16.3 µM)	0.063 (≈ 0.129 µM)	0.125 (≈ 0.255 µM)	8 (≈ 16.3 µM)		
COc1cc(OC)c2nccc(CCC34CCC(NCc5ccc6c(n5)NC(=O)CO6)(CC3)CO4)c2n1	32 (≈ 63.3 µM)		64 (≈ 127 µM)	8 (≈ 15.8 µM)	8 (≈ 15.8 µM)	0.25 (≈ 0.494 µM)	0.5 (≈ 0.989 µM)	8 (≈ 15.8 µM)		
COc1cc(CCC23CCC(NCc4ccc5c(n4)NC(=O)CO5)(CC2)CO3)c2nc(OC)ccc2n1	8 (≈ 15.8 µM)		8 (≈ 15.8 µM)	8 (≈ 15.8 µM)	8 (≈ 15.8 µM)	1 (≈ 1.98 µM)	4 (≈ 7.91 µM)	8 (≈ 15.8 µM)		
Cc1nc2c(CCC34CCC(NCc5ccc6c(n5)NC(=O)CO6)(CC3)CO4)ccnc2cc1C#N	16 (≈ 33 µM)		16 (≈ 33 µM)	16 (≈ 33 µM)	16 (≈ 33 µM)	16 (≈ 33 µM)	16 (≈ 33 µM)	16 (≈ 33 µM)		
COc1cc2nccc(CCC34CCC(NCc5ccc6c(n5)NC(=O)CO6)(CC3)CO4)c2nc1C#N	32 (≈ 63.9 µM)		32 (≈ 63.9 µM)	32 (≈ 63.9 µM)	32 (≈ 63.9 µM)	2 (≈ 4 µM)	8 (≈ 16 µM)	32 (≈ 63.9 µM)		
COc1cc2nccc(CCC34CCC(NCc5ccc6c(n5)NC(=O)CO6)(CC3)CO4)c2nc1C(=O)O	16 (≈ 30.8 µM)		16 (≈ 30.8 µM)	16 (≈ 30.8 µM)	16 (≈ 30.8 µM)	16 (≈ 30.8 µM)	16 (≈ 30.8 µM)	16 (≈ 30.8 µM)		
CCOC(=O)c1c(OC)cnc2c(CCC34CCC(NCc5ccc6c(n5)NC(=O)CO6)(CC3)CO4)ccnc12	16 (≈ 29.2 µM)	<4	16 (≈ 29.2 µM)	16 (≈ 29.2 µM)	16 (≈ 29.2 µM)	16 (≈ 29.2 µM)	16 (≈ 29.2 µM)	16 (≈ 29.2 µM)	7.87	
COc1ccc2ncc(C#N)c(CC(O)C34CCC(NCc5ccc6c(n5)NC(=O)CO6)(CC3)CO4)c2n1 (stereo in doubt; 88)	4 (≈ 7.74 µM)		8 (≈ 15.5 µM)	0.25 (≈ 0.484 µM)	0.5 (≈ 0.968 µM)	0.031 (≈ 0.06 µM)		1 (≈ 1.94 µM)		0.031 (≈ 0.06 µM)
